Like-named read-outs stand apart in the source and are kept apart here.
Key:
[1] = test system: normal peripheral blood mononuclear cells (PBMC); conditions: 24 h
Text: Patients on SSRI's for depression sustain their circulating levels for months on repeated administrations. Also, circulating levels are believed to represent a gross underestimation of the accumulation of SSRI in body tissues. The lymphoma are, by definition, tumours of lymphoid tissues (e.g. lymph nodes).

L3055 BL cells [2] = assay: TUNEL DNA strand breaks, FACS; format: cell-based; conditions: fluoxetine 20 μM, 17 h, 10^6/ml; Means ± SE of 3; control 17.8 ± 3.7
Text: Neither BL cells nor their normal germinal centre B cell equivalents tended to produce the extensive “DNA ladders” that can be seen as a result of DNA fragmentation when other cells (e.g. thymocytes) undergo apoptosis.

L3055 cells [3] = assay: Caspase activity (FAM-VAD-FMK, FACS); format: cell-based; conditions: single dose for 24 hours; fluoxetine 10 μM, paroxetine 10 μM, citalopram 100 μM
Procedure: Caspase activity was detected using the CaspaTag Caspase Activity Kit (Intergen, Oxford, UK). Cells cultured under the conditions indicated below were harvested into 300 μl of culture medium at a cell density of 10^6cells/ml, followed by the addition of […] of a 30×working solution of FAM-VAD-FMK (a carboxy fluorescent tagged caspase inhibitor) (Intergen Co., USA). Cells were then incubated for 1 hr at 37° C. under 5% CO2 while protecting the tubes from light. At the end of the incubation, they were washed twice in 2 ml of 1×washing buffer, followed by addition of 2 μl of PI to distinguish dead cells from live cells, then analysed on an EPICS XL-MCL flow cytometer or by confocal microscopy. For the latter, treated cells were harvested into 300 μl of culture medium containing 10 μl of FAM-VAD-FMK before incubating for 1 hr under the conditions described above. Next, 1.5 μl of Hoechst 33342 stain was added for 5 min, and cells were washed twice in 2 ml of 1×washing buffer following the addition of 1 μl of PI.

[4] = test system: non-BL lines Nalm-6, RPMI 8226, Jurkat, J10, and CEM; assay: DNA synthesis (3H-Thymidine incorporation) in non-BL lines; format: cell-based; conditions: data not shown
L3055 cells [5] = assay: Intracellular free Ca2+; format: cell-based
Text: The increase in intracellular free Ca^2+ is known to be an important step in the induction of apoptosis.

L3055 BL cells [6] = assay: Annexin V binding (phosphatidylserine exposure), FACS; format: cell-based; conditions: fluoxetine 20 μM, 17 h, 10^6/ml, Means ± SE of 3
Text: Annexin V binding to phosphatidylserine exposed on the outer leaflet of cells to signal for phagocytic engulfment is another commonly used measure of programmed death although caution should be applied when using as a sole indicator for assessing apoptosis in B cells.

[7] = test system: actively cycling tonsilar B cells; assay: DNA synthesis in actively cycling tonsilar B cells; format: cell-based; conditions: overnight fluoxetine up to 20 μM after 2 days stimulation with SAC (± CD40L) or PMA (± ionomycin)
L3055 BL cells [8] = assay: DNA synthesis by [3H]-thymidine incorporation in L3055 cells; format: cell-based
Procedure: DNA synthesis was determined by measuring ^3H-thymidine ([^3H]Tdr; Amersham, UK) incorporation into cellular DNA. Cells were cultured in 200 μL of supplemented medium at densities and for times indicated below in flat-bottomed, 96-well tissue culture plates (Becton Dickinson, Oxford, U K) then pulsed for the final 4 h with 50 μl of 10 μCi/ml [^3H]Tdr before harvesting on a Skatron cell harvester (Helis Bio Ltd, Newmarket, UK).

L3055 cells [9] = assay: Cell cycle analysis (propidium iodide, flow cytometry); format: cell-based; conditions: 24 hr; each at its maximal concentration (5-HT 150 μM, fluoxetine 10 μM, anti-μ chain antibody 10 μg/ml)
Procedure: Cells cultured under conditions indicated below were harvested into 100 μl of 1×PBS followed by 400 μl cell cycle buffer containing Triton X-100 and propidium iodide and left to incubate at 4° C. for 1 hr to allow staining of DNA. The degree of fluorescence emitted by bound PI is directly proportional to the amount of DNA in each cell and was measured by flow cytometry as previously described (MacDonald I, et al. Blood (1996); 87:1147-1154). Results are expressed as percentage of viable cells residing in each phase of the cycle.

L3055 cells [10] = assay: Syto 16 / propidium iodide staining (viable, apoptotic, necrotic); format: cell-based
Procedure: Changes in the viability of cells cultured under conditions indicated below were quantified by assessment of forward and 90° (side) light scatter of cells as previously described (Dive C, et al. Biochimica Biophysica Acta (1992); 1133:275-285) using an EPICS XL-MCL flow cytometer (Beckman Coulter, Miami, Fla., USA). Prior to analysis, cells were harvested into polythene FACS tubes, and fixed at 4° C. in 400 μl of FACS buffer [PBS with 5% NGS and 2% Formaldehyde] (BDH/MERCK). Cells were gated in two populations (viable and dead) according to their forward and side light scatter. Viability was expressed as a percentage of the total number of cells residing in the viable and non-viable gates. Cells were also analysed according to Schuurhuis et al (Schuurhuis G J, et al. Exp. Haematol. (1997); 25:754-759) in order to assess the percentages within treated populations of those that were viable, apoptotic, or necrotic. Syto 16 was added at a concentration of 250 nM in PBS to 500,000 cells and incubated at RT for 30 min, at which time 5 μg/ml propidium iodide (PI) was added. Samples were then analysed immediately by FACS and a 2D plot generated of syto 16 fluorescence versus PI fluorescence: syto 16 is taken up only by viable cells whereas Pi exclusively enters necrotic cells—syto 16^−ve/PI^−ve cells are deemed apoptotic.

biopsylike BL cells [11] = assay: PARP-1 cleavage; format: cell-based; conditions: 20 μM fluoxetine
biopsylike BL cells [12] = assay: Real-time RT-PCR gene expression; format: cell-based; conditions: data not shown
Text: BL is characterised by translocations of one c-myc allele to one of the immunoglobulin loci and the extraordinarily high growth rate that characterises these tumours reflects the pro-proliferative actions of the translocated gene. Despite its hallmark translocation to immunoglobulin loci, the BL-associated constitutive expression of c-myc remains dependent on the binding of the recognised c-myc transcription factor Nm23-H2 to a PuF site within the regulatory sequence of the translocated gene.

inhibition of DNA synthesis in actively cycling B cells (in words) [7]: Little inhibition of DNA synthesis
SMILES: CNCCC(Oc1ccc(C(F)(F)F)cc1)c1ccccc1 (stereo not shown) [fluoxetine]
viability of PBMC ([1]; 5 μM): 97.3±0.88% | viability of PBMC ([1]; 10 μM): 97.3±0.33% | % TUNEL positive (L3055 BL cells [2]): 35.7 ± 7.6% | effect on number of cells showing caspase activity (in words) (L3055 cells [3]): significant effect on the numbers of cells showing caspase activity | level of 3H-Thymidine incorporation in non-BL lines (in words) [4]: either no, or only minor reductions | basal Ca2+ (in words) (L3055 cells [5]; data not shown): increase in basal Ca^2+ | levels of intracellular free Ca2+ (in words) (L3055 cells [5]; fluoxetine concentration range (FIG. 23)): sustained increase in the levels of intracellular free Ca^2+ | Annexin V binding MFI (L3055 BL cells [6]; control 3.9 ± 0.2): 26.1 ± 8.4 | Annexin V binding % positive (L3055 BL cells [6]; control 52.3 ± 1.8): 81.1 ± 3.9% | influence of pre-treatment on 5-HT-dependent inhibition of DNA synthesis (in words) (L3055 BL cells [8]; cells pre-treated with agent before 5-HT): substantially reversed | effect on DNA synthesis (in words) (L3055 BL cells [8]; single dose, range of concentrations, [3H]-thymidine incorporation at 24 hr): dose dependent inhibitory effect | cell cycle status (in words) (L3055 cells [9]): accumulation of arresting cells in the G0/G1 compartment | lymphoma cells entering apoptosis (L3055 cells [10]; fluoxetine 10-15 μM, 24 hours): about 40% | number of viable cells (syto 16+ve/PI−ve) (in words) (L3055 cells [10]; increasing concentrations, 24 hr): directly drove the lymphoma cells to die | PARP-1 cleavage (in words) (biopsylike BL cells [11]): extensive PARP-1 cleavage | reduction in levels of c-myc (biopsylike BL cells [12]; 6 h exposure to fluoxetine): ~60% | reduction in levels of nm23-H2 (biopsylike BL cells [12]; 6 h exposure to fluoxetine): ~60% | decrease in the expression of nm23-H1 mRNA (biopsylike BL cells [12]; fluoxetine): 75%
